Assays:
[1] = Cachexia markers Part II: blood TNF-alpha, Interleukin-6, Phase I study; type: in vivo, human
Excerpt: TNF-alpha is an acknowledged independent negative prognostic factor of morbidity and mortality in the elderly (30).

[2] = in vivo; cited from earlier work
[3] = ATP pharmacokinetics: total blood (red blood cell) ATP level, Phase I study, 8 hour intravenous infusion; type: in vivo, human
Method: The solution was administered by continuous intravenous infusions using an Ivac or similar infusion device through venous access in a peripheral vein. If venous access was a problem, either a Hickman catheter or its equivalent, or an Infusaport or its equivalent was inserted to provide vascular access.
The 50 μg/kg/min dose could be reduced to 25 μg/kg/min if adverse effects occurred. […] Succeeding infusions in that patient were at the infusion dose tolerated at the end of the previous treatment. If adverse events occurred in patients being infused at 25 μg/kg/min, the infusions were terminated and the patient received no additional infusions.

[4] = Tumor burden endpoints (PSA), Phase I study; type: in vivo, human
[5] = Voluntary (skeletal) muscle strength, hand grip strength, Phase I study; type: in vivo, human; conditions: for Skeletal Muscle Strength, Change from Baseline, Mean / Skeletal Muscle Strength, Change from Baseline, Median / Skeletal Muscle Strength, Observed Values, Mean / Skeletal Muscle Strength, Observed Values, Median: ITT
Method: Procedure for measuring voluntary (skeletal) muscle strength-hand grip strength • 1. This measurement will be performed in the standing position (without support) using the patients' dominant hand in the horizontal outstretched position of 90 degrees to the body. • 2. Measurements will be taken using a calibrated and well maintained hand-held commercially available dynamometer. • 3. All measurements that are performed during the treatment period will be taken prior to placement of intravenous cannula and prior to study treatment administration • 4. Patients will undertake the hand-grip strength maneuver after initial training—with encouragement from the observer to “do their best”. This will be performed ×3 with no more than 30 seconds between attempts. • 5. The maximal value of the three attempts will be recorded as the hand-grip strength on that day. • 6. The testing will be performed and documented by the same individual member of the research team (as often as is practically possible). • The dynamometer instrument will be to the greatest extent possible the same instrument for any one patient throughout the study and will be initially calibrated and checked for accuracy prior to the study and thereafter on a regular basis. ATP Therapeutics, Inc.

[6] = Week 1 (infusion 1), 4 hours into infusion
[7] = Week 1 (infusion 1), 8 hours (before the end)
[8] = Week 1 (infusion 1), 8.25 hours
[9] = Week 1 (infusion 1), Time 0 (pre-infusion)
[10] = Week 3 (Infusion 3), 4 hours into infusion
[11] = Week 3 (Infusion 3), 8 hours before the end
[12] = Week 3 (Infusion 3), Time 0 (pre-infusion)
[13] = Week 8 (infusion 8), 4 hours into infusion
[14] = Week 8 (infusion 8), 8 hours (before the end)
[15] = Week 8 (infusion 8), Time 0 (pre-infusion)
[16] = Week <1 (Screening), baseline, N=15

Nc1ncnc2c1ncn2[C@@H]1O[C@H](COP(=O)(O)OP(=O)(O)OP(=O)(O)O)[C@@H](O)[C@H]1O [ATP, adenosine 5′-triphosphate]
Interleukin-6 levels ([1]; upon ATP treatment): not stabilized | levels of blood tumor necrosis factor-alpha (TNF-alpha) ([1]; week 13): stabilize | half-life of expanded ATP pools in red blood cells [2]: about 6 hours | total blood (red blood cell) ATP levels ([3]; ATP continuously for eight hours): increases | ATP Level Mean [3, 6]: 0.808 mM | ATP Level Median [3, 6]: 0.745 mM | ATP Level Mean [3, 7]: 0.896 mM | ATP Level Median [3, 7]: 0.770 mM | ATP Level Mean [3, 8]: 0.860 mM | ATP Level Median [3, 8]: 0.860 mM | ATP Level Mean ([3]; Week 1 (infusion 1), 9 hours): 0.912 mM | ATP Level Median ([3]; Week 1 (infusion 1), 9 hours): 0.765 mM | ATP Level Mean ([3]; Week 1 (infusion 1), 10 hours): 0.826 mM | ATP Level Median ([3]; Week 1 (infusion 1), 10 hours): 0.735 mM | ATP Level Mean ([3]; Week 1 (infusion 1), 11 hours): 0.828 mM | ATP Level Median ([3]; Week 1 (infusion 1), 11 hours): 0.680 mM | ATP Level Mean ([3]; Week 1 (infusion 1), 12 hours): 0.845 mM | ATP Level Median ([3]; Week 1 (infusion 1), 12 hours): 0.690 mM | ATP Level Mean ([3]; Week 1 (infusion 1), 14 hours): 0.857 mM | ATP Level Median ([3]; Week 1 (infusion 1), 14 hours): 0.730 mM | ATP Level Mean ([3]; Week 1 (infusion 1), 16 hours): 0.905 mM | ATP Level Median ([3]; Week 1 (infusion 1), 16 hours): 0.755 mM | ATP Level Mean ([3]; Week 1 (infusion 1), 20 hours): 0.772 mM | ATP Level Median ([3]; Week 1 (infusion 1), 20 hours): 0.670 mM | ATP Level Mean ([3]; Week 1 (infusion 1), 24 hours): 0.715 mM | ATP Level Median ([3]; Week 1 (infusion 1), 24 hours): 0.620 mM | ATP Level Mean [3, 9]: 0.615 mM | ATP Level Median [3, 9]: 0.550 mM | ATP Level Mean ([3]; Week 1 (infusion 1), […]): 0.895 mM | ATP Level Median ([3]; Week 1 (infusion 1), […]): 0.810 mM | ATP Level Mean [3, 10]: 0.843 mM | ATP Level Median [3, 10]: 0.540 mM | ATP Level Mean [3, 11]: 0.955 mM | ATP Level Median [3, 11]: 0.770 mM | ATP Level Mean ([3]; Week 3 (Infusion 3), 9 hours): 0.908 mM | ATP Level Median ([3]; Week 3 (Infusion 3), 9 hours): 0.950 mM | ATP Level Mean ([3]; Week 3 (Infusion 3), 10 hours): 0.906 mM | ATP Level Median ([3]; Week 3 (Infusion 3), 10 hours): 1.000 mM | ATP Level Mean ([3]; Week 3 (Infusion 3), 11 hours): 0.885 mM | ATP Level Median ([3]; Week 3 (Infusion 3), 11 hours): 0.670 mM | ATP Level Mean ([3]; Week 3 (Infusion 3), 12 hours): 0.903 mM | ATP Level Median ([3]; Week 3 (Infusion 3), 12 hours): 0.820 mM | ATP Level Mean ([3]; Week 3 (Infusion 3), 14 hours): 0.853 mM | ATP Level Median ([3]; Week 3 (Infusion 3), 14 hours): 0.600 mM | ATP Level Mean ([3]; Week 3 (Infusion 3), 16 hours): 0.859 mM | ATP Level Median ([3]; Week 3 (Infusion 3), 16 hours): 0.740 mM | ATP Level Mean ([3]; Week 3 (Infusion 3), 20 hours): 0.851 mM | ATP Level Median ([3]; Week 3 (Infusion 3), 20 hours): 0.610 mM | ATP Level Mean ([3]; Week 3 (Infusion 3), 24 hours): 0.687 mM | ATP Level Median ([3]; Week 3 (Infusion 3), 24 hours): 0.580 mM | ATP Level Mean [3, 12]: 0.610 mM | ATP Level Median [3, 12]: 0.560 mM | ATP Level Mean ([3]; Week 3 (Infusion 3), […]): 0.989 mM | ATP Level Median ([3]; Week 3 (Infusion 3), […]): 0.960 mM | ATP Level Mean [3, 13]: 0.702 mM | ATP Level Median [3, 13]: 0.770 mM | ATP Level Mean [3, 14]: 0.826 mM | ATP Level Median [3, 14]: 0.890 mM | ATP Level Mean ([3]; Week 8 (infusion 8), 9 hours): 1.030 mM | ATP Level Median ([3]; Week 8 (infusion 8), 9 hours): 1.155 mM | ATP Level Mean ([3]; Week 8 (infusion 8), 10 hours): 0.963 mM | ATP Level Median ([3]; Week 8 (infusion 8), 10 hours): 1.080 mM | ATP Level Mean ([3]; Week 8 (infusion 8), 11 hours): 0.973 mM | ATP Level Median ([3]; Week 8 (infusion 8), 11 hours): 1.010 mM | ATP Level Mean ([3]; Week 8 (infusion 8), 12 hours): 0.925 mM | ATP Level Median ([3]; Week 8 (infusion 8), 12 hours): 1.050 mM | ATP Level Mean ([3]; Week 8 (infusion 8), 14 hours): 0.980 mM | ATP Level Median ([3]; Week 8 (infusion 8), 14 hours): 0.950 mM | ATP Level Mean ([3]; Week 8 (infusion 8), 16 hours): 0.894 mM | ATP Level Median ([3]; Week 8 (infusion 8), 16 hours): 0.700 mM | ATP Level Mean ([3]; Week 8 (infusion 8), 20 hours): 0.960 mM | ATP Level Median ([3]; Week 8 (infusion 8), 20 hours): 0.900 mM | ATP Level Mean ([3]; Week 8 (infusion 8), 24 hours): 0.708 mM | ATP Level Median ([3]; Week 8 (infusion 8), 24 hours): 0.750 mM | ATP Level Mean [3, 15]: 0.573 mM | ATP Level Median [3, 15]: 0.560 mM | ATP Level Mean ([3]; Week 8 (infusion 8), […]): 1.000 mM | ATP Level Median ([3]; Week 8 (infusion 8), […]): 0.980 mM | Increases in total blood ATP pools ([3]; patients 502-505, weeks 1, 3 and 8, time 0 to 8 hours (end of the infusions)): 70-90% | Tumor burden Endpoints: PSA Post ([4]; Patient 503, PSA Pre 4000): Post 3903 | PSA compared to baseline ([4]; Patient 503, at the end of follow up): unchanged | Tumor burden Endpoints: PSA ([4]; Patient 507, increased after stopping Rx): PSA unchanged | Skeletal Muscle Strength, Change from Baseline, Mean ([5]; Week 1 (Infusion 1), N=6): -1.7 kg | Skeletal Muscle Strength, Change from Baseline, Median ([5]; Week 1 (Infusion 1), N=6): -1.5 kg | Skeletal Muscle Strength, Observed Values, Mean ([5]; Week 1 (Infusion 1), N=6): 38.5 kg | Skeletal Muscle Strength, Observed Values, Median ([5]; Week 1 (Infusion 1), N=6): 35.0 kg | Skeletal Muscle Strength, Change from Baseline, Mean ([5]; Week 2 (Infusion 2), N=14): -1.4 kg | Skeletal Muscle Strength, Change from Baseline, Median ([5]; Week 2 (Infusion 2), N=14): -2.0 kg | Skeletal Muscle Strength, Observed Values, Mean ([5]; Week 2 (Infusion 2), N=14): 34.6 kg | Skeletal Muscle Strength, Observed Values, Median ([5]; Week 2 (Infusion 2), N=14): 34.0 kg | Skeletal Muscle Strength, Change from Baseline, Mean ([5]; Week 4 (Infusion 4), N=11): -4.1 kg | Skeletal Muscle Strength, Change from Baseline, Median ([5]; Week 4 (Infusion 4), N=11): -2.0 kg | Skeletal Muscle Strength, Observed Values, Mean ([5]; Week 4 (Infusion 4), N=11): 31.5 kg | Skeletal Muscle Strength, Observed Values, Median ([5]; Week 4 (Infusion 4), N=11): 32.0 kg | Skeletal Muscle Strength, Change from Baseline, Mean ([5]; Week 8 (Infusion 8), N=7): -2.4 kg | Skeletal Muscle Strength, Change from Baseline, Median ([5]; Week 8 (Infusion 8), N=7): -2.0 kg | Skeletal Muscle Strength, Observed Values, Mean ([5]; Week 8 (Infusion 8), N=7): 30.0 kg | Skeletal Muscle Strength, Observed Values, Median ([5]; Week 8 (Infusion 8), N=7): 26.0 kg | Skeletal Muscle Strength, Change from Baseline, Mean ([5]; Week 10 (Follow-up), N=6): 1.8 kg | Skeletal Muscle Strength, Change from Baseline, Median ([5]; Week 10 (Follow-up), N=6): -3.0 kg | Skeletal Muscle Strength, Observed Values, Mean ([5]; Week 10 (Follow-up), N=6): 33.7 kg | Skeletal Muscle Strength, Observed Values, Median ([5]; Week 10 (Follow-up), N=6): 30.0 kg | Skeletal Muscle Strength, Change from Baseline, Mean ([5]; Week 13 (follow-up), N=4): 6.3 kg | Skeletal Muscle Strength, Change from Baseline, Median ([5]; Week 13 (follow-up), N=4): -1.0 kg | Skeletal Muscle Strength, Observed Values, Mean ([5]; Week 13 (follow-up), N=4): 32.5 kg | Skeletal Muscle Strength, Observed Values, Median ([5]; Week 13 (follow-up), N=4): 26.0 kg | Skeletal Muscle Strength, Change from Baseline, Mean [5, 16]: 0.0 kg | Skeletal Muscle Strength, Change from Baseline, Median [5, 16]: 0.0 kg | Skeletal Muscle Strength, Observed Values, Mean [5, 16]: 35.1 kg | Skeletal Muscle Strength, Observed Values, Median [5, 16]: 35.0 kg | skeletal muscle strength ([5]; beginning at week 8 and up to week 13): stabilize and improve | Skeletal Muscle Strength (voluntary) ([5]; patients 502-505, screening (week <1) to week 8 (last infusion cycle)): Small increase
